Measurements from ChEMBL document CHEMBL1151671, “Cytotoxic oxygenated desmosterols of the red alga Galaxaura marginata” (1996).
≈ marks a conversion by molar mass, not a printed value.

Test system: A549
Assay: Cytotoxicity against human A549 cells by MTT assay
Format: functional
Details: read-out: ED50 (the source's name)

| SMILES | EC50 [µg/mL] |
| --- | --- |
| CC(C)=CCC[C@@H](C)[C@H]1CC[C@H]2[C@@H]3CC=C4C[C@@H](O)CC[C@]4(C)[C@H]3CC[C@]12C [DESMOSTEROL] | > 50 |
| C=C(C)C(O)CC[C@@H](C)[C@H]1CC[C@H]2[C@@H]3CC=C4C[C@@H](O)CC[C@]4(C)[C@H]3CC[C@]12C (stereo partly specified) | 1.61 (≈ 4.02 µM) |
| C=C(C)C(CC[C@@H](C)[C@H]1CC[C@H]2[C@@H]3CC=C4C[C@@H](O)CC[C@]4(C)[C@H]3CC[C@]12C)OO (stereo partly specified) | 0.64 (≈ 1.54 µM) |
| C[C@H](CCC1OC1(C)C)[C@H]1CC[C@H]2[C@@H]3C[C@@H](O)C4=CC(=O)CC[C@]4(C)[C@H]3CC[C@]12C (mixture of isomers) | 3.14 |
| C[C@H](C/C=C/C(C)(C)O)[C@H]1CC[C@H]2[C@@H]3CC=C4C[C@@H](O)CC[C@]4(C)[C@H]3CC[C@]12C | 1.08 (≈ 2.7 µM) |

Test system: P388
Assay: Cytotoxicity against mouse P388 cells by MTT assay
Format: functional
Details: read-out: ED50 (the source's name)

| SMILES | EC50 [µg/mL] |
| --- | --- |
| CC(C)=CCC[C@@H](C)[C@H]1CC[C@H]2[C@@H]3CC=C4C[C@@H](O)CC[C@]4(C)[C@H]3CC[C@]12C [DESMOSTEROL] | 33.5 (≈ 87.2 µM) |
| C=C(C)C(O)CC[C@@H](C)[C@H]1CC[C@H]2[C@@H]3CC=C4C[C@@H](O)CC[C@]4(C)[C@H]3CC[C@]12C (stereo partly specified) | 0.36 (≈ 0.899 µM) |
| C=C(C)C(CC[C@@H](C)[C@H]1CC[C@H]2[C@@H]3CC=C4C[C@@H](O)CC[C@]4(C)[C@H]3CC[C@]12C)OO (stereo partly specified) | 0.26 (≈ 0.624 µM) |
| C[C@H](CCC1OC1(C)C)[C@H]1CC[C@H]2[C@@H]3C[C@@H](O)C4=CC(=O)CC[C@]4(C)[C@H]3CC[C@]12C (mixture of isomers) | 0.75 |
| C[C@H](C/C=C/C(C)(C)OO)[C@H]1CC[C@H]2[C@@H]3CC=C4C[C@@H](O)CC[C@]4(C)[C@H]3CC[C@]12C | 0.22 (≈ 0.528 µM) |
| C[C@H](C/C=C/C(C)(C)O)[C@H]1CC[C@H]2[C@@H]3CC=C4C[C@@H](O)CC[C@]4(C)[C@H]3CC[C@]12C | 0.15 (≈ 0.374 µM) |

Test system: KB
Assay: Cytotoxicity against human KB cells by MTT assay
Format: functional
Details: read-out: ED50 (the source's name)

| SMILES | EC50 [µg/mL] |
| --- | --- |
| CC(C)=CCC[C@@H](C)[C@H]1CC[C@H]2[C@@H]3CC=C4C[C@@H](O)CC[C@]4(C)[C@H]3CC[C@]12C [DESMOSTEROL] | > 50 |
| C=C(C)C(O)CC[C@@H](C)[C@H]1CC[C@H]2[C@@H]3CC=C4C[C@@H](O)CC[C@]4(C)[C@H]3CC[C@]12C (stereo partly specified) | 0.67 (≈ 1.67 µM) |
| C=C(C)C(CC[C@@H](C)[C@H]1CC[C@H]2[C@@H]3CC=C4C[C@@H](O)CC[C@]4(C)[C@H]3CC[C@]12C)OO (stereo partly specified) | 0.33 (≈ 0.792 µM) |
| C[C@H](CCC1OC1(C)C)[C@H]1CC[C@H]2[C@@H]3C[C@@H](O)C4=CC(=O)CC[C@]4(C)[C@H]3CC[C@]12C (mixture of isomers) | 0.3 |
| C[C@H](C/C=C/C(C)(C)O)[C@H]1CC[C@H]2[C@@H]3CC=C4C[C@@H](O)CC[C@]4(C)[C@H]3CC[C@]12C | 0.61 (≈ 1.52 µM) |

Test system: HT-29
Assay: Cytotoxicity against human HT29 cells by MTT assay
Format: functional
Details: read-out: ED50 (the source's name)

| SMILES | EC50 [µg/mL] |
| --- | --- |
| CC(C)=CCC[C@@H](C)[C@H]1CC[C@H]2[C@@H]3CC=C4C[C@@H](O)CC[C@]4(C)[C@H]3CC[C@]12C [DESMOSTEROL] | > 50 |
| C=C(C)C(O)CC[C@@H](C)[C@H]1CC[C@H]2[C@@H]3CC=C4C[C@@H](O)CC[C@]4(C)[C@H]3CC[C@]12C (stereo partly specified) | 0.37 (≈ 0.924 µM) |
| C=C(C)C(CC[C@@H](C)[C@H]1CC[C@H]2[C@@H]3CC=C4C[C@@H](O)CC[C@]4(C)[C@H]3CC[C@]12C)OO (stereo partly specified) | 0.43 (≈ 1.03 µM) |
| C[C@H](CCC1OC1(C)C)[C@H]1CC[C@H]2[C@@H]3C[C@@H](O)C4=CC(=O)CC[C@]4(C)[C@H]3CC[C@]12C (mixture of isomers) | 0.87 |
| C[C@H](C/C=C/C(C)(C)O)[C@H]1CC[C@H]2[C@@H]3CC=C4C[C@@H](O)CC[C@]4(C)[C@H]3CC[C@]12C | 0.6 (≈ 1.5 µM) |
